Assay results from ChEMBL document CHEMBL1201862, “PubChem BioAssay data set” (2004).
The source made the active and inactive calls.

Assays:
[1] = biological target: Protein-arginine deiminase type-4 (Homo sapiens, UniProt Q9UM07); assay: IC50 against protein arginine deiminase 4 – biochemical, fluorescence readout, dose response (AID 492970)
[2] = biological target: T1, Small ubiquitin-related modifier 1 (Homo sapiens, UniProt P63165); assay: SUMO1 protein-protein binding blockers, potency – biochemical, FRET, dose response (AID 624383); type: functional; settings: read-out: IC50_Mean
T1 sequence (P63165 whole entry): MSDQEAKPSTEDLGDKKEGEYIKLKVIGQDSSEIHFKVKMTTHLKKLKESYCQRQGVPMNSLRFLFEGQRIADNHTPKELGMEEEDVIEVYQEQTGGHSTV

[3] = biological target: T2, Dual specificity protein phosphatase 3 (Homo sapiens, UniProt P51452); assay: SAR VHR1 Fluorescent Assay for In Vitro dose response studies. [Related pubchem assays (depositor defined):AID1654, AID1661, AID1878, AID1992, AID2004, AID2070, AID2085]; type: functional
T2 sequence (P51452 whole entry): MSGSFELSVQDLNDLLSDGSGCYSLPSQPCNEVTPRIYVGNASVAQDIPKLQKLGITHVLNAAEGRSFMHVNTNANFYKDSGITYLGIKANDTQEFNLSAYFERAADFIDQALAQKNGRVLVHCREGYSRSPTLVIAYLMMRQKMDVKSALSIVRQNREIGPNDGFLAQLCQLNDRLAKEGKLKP

[4] = biological target: T2, Dual specificity protein phosphatase 3; assay: MOA VHR1 Fluorescent secondary assay for identification of redox-state modulating compounds. [Related pubchem assays (depositor defined):AID1654, AID1661, AID1878, AID1957]
[5] = biological target: T3, Low molecular weight phosphotyrosine protein phosphatase (Homo sapiens, UniProt P24666); type: functional; settings: read-out: IC50_Mean;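 also: Dose-response confirmation assay measuring inhibition of LMPTP enzyme activity by fluorescence intensity read-out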
T3 sequence (P24666 whole entry): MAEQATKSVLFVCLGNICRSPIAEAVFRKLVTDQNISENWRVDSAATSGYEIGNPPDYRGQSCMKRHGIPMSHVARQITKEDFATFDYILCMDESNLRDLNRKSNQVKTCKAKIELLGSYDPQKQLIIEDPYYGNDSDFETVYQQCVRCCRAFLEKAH

[6] = biological target: Tyrosine-protein phosphatase non-receptor type 12 (Homo sapiens, UniProt Q05209); assay: SAR Selectivity Analysis of small molecule inhibitors of PEST using pCAP in a fluorescence assay. [Related pubchem assays (depositor defined):AID1779, AID1784, AID2135]; type: functional
Chain of Tyrosine-protein phosphatase non-receptor type 12 (Q05209 whole entry): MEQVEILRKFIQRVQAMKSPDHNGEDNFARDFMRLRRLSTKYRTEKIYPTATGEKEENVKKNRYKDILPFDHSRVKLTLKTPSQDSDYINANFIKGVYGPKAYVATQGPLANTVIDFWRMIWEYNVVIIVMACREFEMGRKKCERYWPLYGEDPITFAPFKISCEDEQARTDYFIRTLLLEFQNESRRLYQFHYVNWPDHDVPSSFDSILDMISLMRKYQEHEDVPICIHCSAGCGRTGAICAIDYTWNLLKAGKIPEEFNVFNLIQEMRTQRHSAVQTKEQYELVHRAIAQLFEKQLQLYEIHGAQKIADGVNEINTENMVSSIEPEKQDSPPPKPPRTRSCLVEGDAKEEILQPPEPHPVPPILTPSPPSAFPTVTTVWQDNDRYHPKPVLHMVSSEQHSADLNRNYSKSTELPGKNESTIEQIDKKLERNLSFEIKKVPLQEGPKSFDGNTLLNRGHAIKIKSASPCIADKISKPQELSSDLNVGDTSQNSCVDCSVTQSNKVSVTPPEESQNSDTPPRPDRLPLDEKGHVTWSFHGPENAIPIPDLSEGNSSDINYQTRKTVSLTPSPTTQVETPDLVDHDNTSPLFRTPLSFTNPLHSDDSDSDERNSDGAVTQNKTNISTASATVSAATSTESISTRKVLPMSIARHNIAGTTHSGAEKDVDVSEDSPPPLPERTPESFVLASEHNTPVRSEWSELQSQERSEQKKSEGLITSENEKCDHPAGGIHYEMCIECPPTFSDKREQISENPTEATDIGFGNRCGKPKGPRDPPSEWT

[7] = biological target: T1, Small ubiquitin-related modifier 1; assay: SUMO1 protein interaction blockers, potency – biochemical, fluorescence polarization, uHTS hits, dose response (AID 624382); type: functional; settings: read-out: IC50_Mean
[8] = biological target: T4, Dual specificity protein phosphatase 6 (Rattus norvegicus, UniProt Q64346); type: functional;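 also: confirmatory in vitro dose-response testing of MKP-3 inhibition; recombinant His-tagged MKP-3 made in E. coli BL21 with OMFP substrate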
T4 sequence (Q64346 whole entry): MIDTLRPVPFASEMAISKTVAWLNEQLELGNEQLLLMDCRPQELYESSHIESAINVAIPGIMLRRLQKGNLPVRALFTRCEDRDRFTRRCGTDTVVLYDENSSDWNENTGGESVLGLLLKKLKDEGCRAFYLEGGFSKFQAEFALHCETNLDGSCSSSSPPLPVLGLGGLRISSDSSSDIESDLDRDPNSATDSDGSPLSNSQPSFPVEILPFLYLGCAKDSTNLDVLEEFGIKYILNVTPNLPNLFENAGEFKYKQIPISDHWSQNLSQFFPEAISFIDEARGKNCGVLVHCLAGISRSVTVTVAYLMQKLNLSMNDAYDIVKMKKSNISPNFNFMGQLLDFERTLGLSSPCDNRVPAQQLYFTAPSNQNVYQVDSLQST

[9] = biological target: T5, Tyrosine-protein phosphatase non-receptor type 22 (Homo sapiens, UniProt Q9Y2R2); assay: inhibition of lymphoid tyrosine phosphatase LYP – biochemical, pCAP fluorogenic substrate, fluorescence, set 3, SAR follow-up (AID 449727); type: functional
T5 sequence (Q9Y2R2 whole entry): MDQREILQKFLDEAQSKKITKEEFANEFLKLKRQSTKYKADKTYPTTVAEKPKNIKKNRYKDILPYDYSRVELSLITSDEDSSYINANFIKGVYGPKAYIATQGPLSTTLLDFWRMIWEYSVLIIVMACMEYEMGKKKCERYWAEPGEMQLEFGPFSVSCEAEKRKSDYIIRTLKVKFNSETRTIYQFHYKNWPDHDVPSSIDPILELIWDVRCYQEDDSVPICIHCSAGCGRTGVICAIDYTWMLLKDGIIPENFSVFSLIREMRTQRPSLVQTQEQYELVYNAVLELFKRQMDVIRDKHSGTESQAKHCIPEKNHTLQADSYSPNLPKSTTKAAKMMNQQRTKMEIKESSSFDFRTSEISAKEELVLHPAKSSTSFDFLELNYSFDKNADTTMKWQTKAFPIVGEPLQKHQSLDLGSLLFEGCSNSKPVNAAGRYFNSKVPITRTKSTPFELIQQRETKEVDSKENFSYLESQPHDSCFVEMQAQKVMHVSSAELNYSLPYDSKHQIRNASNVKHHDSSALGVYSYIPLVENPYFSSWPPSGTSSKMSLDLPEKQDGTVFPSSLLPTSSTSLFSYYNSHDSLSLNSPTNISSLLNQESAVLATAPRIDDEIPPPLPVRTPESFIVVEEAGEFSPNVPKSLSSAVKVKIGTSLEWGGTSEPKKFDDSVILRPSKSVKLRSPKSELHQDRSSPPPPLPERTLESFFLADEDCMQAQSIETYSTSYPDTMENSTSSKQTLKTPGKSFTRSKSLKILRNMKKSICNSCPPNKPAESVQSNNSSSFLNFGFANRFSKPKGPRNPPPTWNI

[10] = biological target: T2, Dual specificity protein phosphatase 3; assay: SAR VHR1 absorbance Assay for In Vitro dose response studies. [Related pubchem assays (depositor defined):AID1654, AID1661, AID1878, AID1992, AID2004]
[11] = biological target: DNA (cytosine-5)-methyltransferase 1 (Homo sapiens, UniProt P26358); assay: inhibition of DNA methylation by DNMT1 – biochemical, fluorescent molecular beacon, confirmation (AID 602386); type: functional
Chain of DNA (cytosine-5)-methyltransferase 1 (P26358 whole entry, the tested form may be a part): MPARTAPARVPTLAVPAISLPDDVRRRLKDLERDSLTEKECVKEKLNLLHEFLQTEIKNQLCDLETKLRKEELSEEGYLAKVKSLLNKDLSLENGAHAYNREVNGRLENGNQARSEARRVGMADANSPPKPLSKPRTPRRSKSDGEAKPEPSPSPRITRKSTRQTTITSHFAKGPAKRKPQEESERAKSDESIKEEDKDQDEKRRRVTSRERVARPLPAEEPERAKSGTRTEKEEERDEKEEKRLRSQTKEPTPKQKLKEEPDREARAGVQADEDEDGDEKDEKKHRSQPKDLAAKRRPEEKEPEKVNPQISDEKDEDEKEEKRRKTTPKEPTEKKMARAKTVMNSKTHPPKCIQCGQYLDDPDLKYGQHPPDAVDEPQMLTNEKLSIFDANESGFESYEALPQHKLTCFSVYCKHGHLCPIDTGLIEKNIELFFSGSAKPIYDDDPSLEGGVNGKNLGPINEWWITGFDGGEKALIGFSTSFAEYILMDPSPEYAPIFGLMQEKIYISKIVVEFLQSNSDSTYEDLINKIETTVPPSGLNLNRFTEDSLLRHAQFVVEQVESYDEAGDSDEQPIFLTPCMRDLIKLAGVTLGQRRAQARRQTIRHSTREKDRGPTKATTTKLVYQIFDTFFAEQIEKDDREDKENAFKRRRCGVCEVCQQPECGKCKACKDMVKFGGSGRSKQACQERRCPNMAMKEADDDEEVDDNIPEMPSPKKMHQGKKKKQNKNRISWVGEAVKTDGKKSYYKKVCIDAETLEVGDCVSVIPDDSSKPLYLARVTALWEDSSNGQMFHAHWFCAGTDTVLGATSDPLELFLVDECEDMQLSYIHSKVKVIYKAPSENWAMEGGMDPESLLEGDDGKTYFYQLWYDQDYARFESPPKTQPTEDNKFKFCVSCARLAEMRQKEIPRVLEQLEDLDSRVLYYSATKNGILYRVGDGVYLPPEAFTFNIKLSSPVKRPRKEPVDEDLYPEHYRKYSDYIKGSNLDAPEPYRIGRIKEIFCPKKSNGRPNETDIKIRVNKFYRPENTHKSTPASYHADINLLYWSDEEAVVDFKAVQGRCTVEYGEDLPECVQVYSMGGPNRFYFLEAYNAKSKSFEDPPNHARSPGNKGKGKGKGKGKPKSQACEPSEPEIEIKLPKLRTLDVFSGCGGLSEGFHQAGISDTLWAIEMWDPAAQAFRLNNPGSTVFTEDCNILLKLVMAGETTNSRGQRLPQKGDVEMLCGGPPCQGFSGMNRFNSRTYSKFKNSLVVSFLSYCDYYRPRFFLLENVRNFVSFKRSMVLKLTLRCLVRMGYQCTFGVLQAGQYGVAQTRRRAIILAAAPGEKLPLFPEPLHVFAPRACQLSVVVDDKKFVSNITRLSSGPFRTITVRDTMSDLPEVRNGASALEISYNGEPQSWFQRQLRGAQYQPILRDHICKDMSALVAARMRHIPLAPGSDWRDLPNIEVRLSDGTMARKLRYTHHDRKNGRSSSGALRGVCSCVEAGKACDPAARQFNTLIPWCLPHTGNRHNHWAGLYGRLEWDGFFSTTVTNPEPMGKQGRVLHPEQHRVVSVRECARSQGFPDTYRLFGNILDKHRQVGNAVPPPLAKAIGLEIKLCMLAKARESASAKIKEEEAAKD

[12] = biological target: T5, Tyrosine-protein phosphatase non-receptor type 22; assay: PTPN22 enzyme inhibitors – biochemical, fluorescence, LYP catalytic domain, selectivity assay for LMPTP inhibitor project, dose response (AID 652006); type: functional; settings: read-out: IC50_Mean
[13] = biological target: T5, Tyrosine-protein phosphatase non-receptor type 22; assay: SAR LYP1 Fluorescent Assay using OMFP substrate for In Vitro dose response studies - Set 3. [Related pubchem assays (depositor defined):AID1779, AID1784, AID2140, AID2686]; type: functional
[14] = biological target: T6, Tyrosine-protein phosphatase non-receptor type 7 (Homo sapiens, UniProt P35236); assay: redox-active compounds inhibiting HePTP phosphatase – biochemical, fluorescence, mechanism study (AID 2068); type: functional
T6 sequence (P35236 whole entry): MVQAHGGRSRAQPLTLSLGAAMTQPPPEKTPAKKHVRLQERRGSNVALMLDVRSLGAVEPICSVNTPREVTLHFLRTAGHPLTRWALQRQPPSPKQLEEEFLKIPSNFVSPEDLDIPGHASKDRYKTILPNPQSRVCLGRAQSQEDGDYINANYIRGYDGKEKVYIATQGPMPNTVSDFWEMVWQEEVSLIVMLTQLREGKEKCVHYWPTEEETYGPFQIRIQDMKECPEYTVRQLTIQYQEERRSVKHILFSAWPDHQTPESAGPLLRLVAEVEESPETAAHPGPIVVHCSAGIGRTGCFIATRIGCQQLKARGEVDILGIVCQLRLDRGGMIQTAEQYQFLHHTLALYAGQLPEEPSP

[15] = biological target: T6, Tyrosine-protein phosphatase non-receptor type 7; assay: inhibition of hematopoietic tyrosine phosphatase HePTP – biochemical, set 2, SAR follow-up (AID 449736); type: functional
[16] = A cytotoxicity screen of small molecule inhibitors of the PhoP region in Salmonella typhi identified in the primary screen. [Related pubchem assays: 1850, 1864, 1985 ]; type: functional
Hexokinase-1 = Hexokinase-1 (Homo sapiens, UniProt P19367); assay: HK1 enzyme activation by HKDC1 hits – biochemical, selectivity assay for HKDC1 activator project, dose response (AID 504762); type: functional
Chain of Hexokinase-1 (P19367 whole entry): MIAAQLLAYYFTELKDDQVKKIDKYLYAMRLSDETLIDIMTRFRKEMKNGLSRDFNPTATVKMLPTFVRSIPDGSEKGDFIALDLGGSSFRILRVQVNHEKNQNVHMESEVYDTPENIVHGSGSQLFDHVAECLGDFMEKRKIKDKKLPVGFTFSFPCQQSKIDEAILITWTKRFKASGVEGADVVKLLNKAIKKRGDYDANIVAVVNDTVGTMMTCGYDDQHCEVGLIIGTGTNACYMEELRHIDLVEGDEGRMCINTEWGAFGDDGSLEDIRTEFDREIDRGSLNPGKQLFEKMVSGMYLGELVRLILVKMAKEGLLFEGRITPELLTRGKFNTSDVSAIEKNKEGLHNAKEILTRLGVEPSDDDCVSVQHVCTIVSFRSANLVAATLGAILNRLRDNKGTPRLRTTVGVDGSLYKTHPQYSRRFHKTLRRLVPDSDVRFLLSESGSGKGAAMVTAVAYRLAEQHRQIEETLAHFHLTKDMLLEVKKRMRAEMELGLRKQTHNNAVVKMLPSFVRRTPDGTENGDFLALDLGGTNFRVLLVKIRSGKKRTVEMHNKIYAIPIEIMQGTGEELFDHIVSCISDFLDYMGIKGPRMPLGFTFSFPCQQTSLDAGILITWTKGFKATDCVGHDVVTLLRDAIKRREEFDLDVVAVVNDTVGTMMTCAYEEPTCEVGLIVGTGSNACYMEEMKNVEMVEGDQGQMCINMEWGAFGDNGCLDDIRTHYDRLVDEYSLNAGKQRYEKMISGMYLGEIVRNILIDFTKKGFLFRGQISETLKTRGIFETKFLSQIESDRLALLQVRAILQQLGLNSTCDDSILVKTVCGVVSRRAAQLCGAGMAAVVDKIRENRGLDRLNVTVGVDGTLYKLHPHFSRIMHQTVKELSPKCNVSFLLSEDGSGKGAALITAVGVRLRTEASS

Hexokinase HKDC1 = biological target: T7, Hexokinase HKDC1 (Homo sapiens, UniProt Q2TB90); assay: activation of HKDC1 glucose phosphorylation – biochemical, W721R variant, dose response (AID 504730); type: functional
T7 sequence (Q2TB90 whole entry): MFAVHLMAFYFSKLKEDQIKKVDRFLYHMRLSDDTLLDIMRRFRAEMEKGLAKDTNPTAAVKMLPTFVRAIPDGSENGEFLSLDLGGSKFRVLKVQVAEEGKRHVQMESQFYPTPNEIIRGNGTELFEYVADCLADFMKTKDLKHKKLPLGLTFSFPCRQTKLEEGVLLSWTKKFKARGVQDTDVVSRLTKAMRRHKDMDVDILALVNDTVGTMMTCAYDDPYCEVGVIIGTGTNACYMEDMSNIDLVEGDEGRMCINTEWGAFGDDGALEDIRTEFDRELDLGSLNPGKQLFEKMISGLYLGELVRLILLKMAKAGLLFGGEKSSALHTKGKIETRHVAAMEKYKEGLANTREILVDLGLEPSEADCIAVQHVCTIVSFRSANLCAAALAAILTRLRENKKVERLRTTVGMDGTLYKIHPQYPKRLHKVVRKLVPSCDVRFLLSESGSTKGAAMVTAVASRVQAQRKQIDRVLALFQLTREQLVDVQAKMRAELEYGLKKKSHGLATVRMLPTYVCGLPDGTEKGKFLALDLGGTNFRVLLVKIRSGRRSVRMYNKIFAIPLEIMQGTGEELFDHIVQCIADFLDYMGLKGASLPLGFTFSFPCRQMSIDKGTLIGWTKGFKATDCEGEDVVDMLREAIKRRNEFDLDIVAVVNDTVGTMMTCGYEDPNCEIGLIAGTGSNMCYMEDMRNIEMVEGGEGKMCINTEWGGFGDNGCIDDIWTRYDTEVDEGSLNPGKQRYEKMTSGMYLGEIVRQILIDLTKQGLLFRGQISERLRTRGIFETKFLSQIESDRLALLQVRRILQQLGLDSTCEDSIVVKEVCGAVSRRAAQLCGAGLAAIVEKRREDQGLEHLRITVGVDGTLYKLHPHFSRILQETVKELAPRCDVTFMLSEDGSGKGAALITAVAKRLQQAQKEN

NADPH oxidase 3 = NADPH oxidase 3 (Homo sapiens, UniProt Q9HBY0); assay: PubChem AID 435013
NADPH oxidase 2 = NADPH oxidase 2 (Homo sapiens, UniProt P04839); assay: PubChem AID 435013
Chain of NADPH oxidase 2 (P04839 whole entry): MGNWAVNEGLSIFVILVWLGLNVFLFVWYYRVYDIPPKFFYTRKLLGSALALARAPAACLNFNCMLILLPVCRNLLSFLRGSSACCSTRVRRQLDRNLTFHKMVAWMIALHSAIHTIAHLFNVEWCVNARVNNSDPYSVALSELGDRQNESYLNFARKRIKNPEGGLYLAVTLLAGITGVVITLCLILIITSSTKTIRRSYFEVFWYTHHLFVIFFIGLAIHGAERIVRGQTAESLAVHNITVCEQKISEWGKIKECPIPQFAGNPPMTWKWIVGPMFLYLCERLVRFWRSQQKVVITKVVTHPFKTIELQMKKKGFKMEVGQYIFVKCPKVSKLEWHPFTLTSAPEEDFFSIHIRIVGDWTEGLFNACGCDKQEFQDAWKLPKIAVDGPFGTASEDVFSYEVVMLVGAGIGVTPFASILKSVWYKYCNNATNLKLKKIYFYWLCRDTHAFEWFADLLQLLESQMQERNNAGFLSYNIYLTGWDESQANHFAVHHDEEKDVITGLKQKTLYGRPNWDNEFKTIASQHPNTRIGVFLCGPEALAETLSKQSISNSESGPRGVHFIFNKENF

NADPH oxidase 1 [17] = biological target: T8, NADPH oxidase 1 (Homo sapiens, UniProt Q9Y5S8); assay: HEK293 ROS counter-screen potency – cell-based, IC50, set 2, counter-screen for NOX1 inhibitor project, late-stage follow-up (AID 435002); type: functional
T8 sequence (Q9Y5S8 whole entry): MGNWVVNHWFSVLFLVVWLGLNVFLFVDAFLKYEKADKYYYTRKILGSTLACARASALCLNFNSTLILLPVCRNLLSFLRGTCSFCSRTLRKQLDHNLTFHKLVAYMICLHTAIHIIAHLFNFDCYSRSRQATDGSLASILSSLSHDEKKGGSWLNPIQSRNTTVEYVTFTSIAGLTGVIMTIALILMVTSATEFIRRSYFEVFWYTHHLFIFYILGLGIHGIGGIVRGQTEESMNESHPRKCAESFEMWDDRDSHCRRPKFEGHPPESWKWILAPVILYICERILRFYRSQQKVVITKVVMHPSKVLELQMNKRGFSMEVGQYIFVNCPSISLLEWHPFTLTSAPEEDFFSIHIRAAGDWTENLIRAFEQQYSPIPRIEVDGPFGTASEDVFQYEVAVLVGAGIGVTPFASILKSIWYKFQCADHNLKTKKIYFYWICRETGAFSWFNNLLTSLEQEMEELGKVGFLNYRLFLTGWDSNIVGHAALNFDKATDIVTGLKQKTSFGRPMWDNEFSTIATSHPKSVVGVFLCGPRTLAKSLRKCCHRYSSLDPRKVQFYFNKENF

NADPH oxidase 1 [18] = biological target: T8, NADPH oxidase 1; assay: potency of NOX1 inhibition in cells – cell-based, luminescence, cherry picks 2, dose response (AID 434997); type: functional
NADPH oxidase 4 = NADPH oxidase 4 (Homo sapiens, UniProt Q9NPH5); assay: PubChem AID 435013
Chain of NADPH oxidase 4 (Q9NPH5 whole entry): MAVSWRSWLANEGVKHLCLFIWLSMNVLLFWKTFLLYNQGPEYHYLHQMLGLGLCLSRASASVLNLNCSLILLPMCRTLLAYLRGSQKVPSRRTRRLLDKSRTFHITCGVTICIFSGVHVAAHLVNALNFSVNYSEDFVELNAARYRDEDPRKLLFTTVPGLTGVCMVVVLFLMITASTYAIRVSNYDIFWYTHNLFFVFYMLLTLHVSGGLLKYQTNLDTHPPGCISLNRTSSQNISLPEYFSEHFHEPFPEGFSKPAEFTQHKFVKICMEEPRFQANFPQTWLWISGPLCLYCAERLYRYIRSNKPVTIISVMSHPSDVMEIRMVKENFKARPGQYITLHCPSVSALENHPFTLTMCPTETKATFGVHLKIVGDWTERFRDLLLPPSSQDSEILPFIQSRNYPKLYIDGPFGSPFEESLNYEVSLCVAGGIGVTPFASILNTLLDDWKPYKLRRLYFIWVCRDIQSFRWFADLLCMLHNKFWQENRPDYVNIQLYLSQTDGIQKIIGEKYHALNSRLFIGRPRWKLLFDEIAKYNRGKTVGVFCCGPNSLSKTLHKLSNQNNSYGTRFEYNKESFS

In the case of `CC(=O)c1cc([N+](=O)[O-])c(Sc2ccc(Cl)cc2)s1`, the IC50 [1] is reported as 92 µM (inactive).
In the case of `CCOC(=O)C1=C(C)N=c2sc(=Cc3ccc(OCC(=O)O)cc3)c(=O)n2C1c1ccc(Cl)cc1` (stereo not drawn), the IC50 [2] is reported as 8.82 µM (active), the IC50 [3] is reported as 3.2 µM (active) and the IC50 [4] is reported as 2.08 µM (active). For the same compound, the IC50 [5] was 12.5 µM (active), the IC50 [6] was 2.41 µM (active) and the IC50 [7] was > 66.6 µM (inactive). For the same compound, the IC50 [8] was 41.4 µM (active), the IC50 [9] was 2.74 µM (active) and the IC50 [10] was 4.23 µM (active). The IC50 [11] was 8.42 µM (active), the IC50 [12] was 12 µM (active) and the IC50 [13] was 3.82 µM (active). For the same compound, the IC50 [14] was 0.52 µM (active) and the IC50 [15] was 0.419 µM (active).
In the case of `Nc1nc(N2CCN(c3ccccn3)CC2)nc2ccccc12`, the EC50 [16] is reported as > 50 µM (active), the EC50 (Hexokinase-1) is reported as 32.2 µM (inactive) and the EC50 (Hexokinase HKDC1) is reported as 25.4 µM (inactive).
With `CN(C)c1ccc(/C=N/Nc2c(Cl)cncc2Cl)cc1` the IC50 (NADPH oxidase 3) was 20 µM (inactive), the IC50 (NADPH oxidase 2) was > 10 µM (inactive) and the IC50 (NADPH oxidase 1 [17]) was 4 µM (active). For the same compound, the IC50 (NADPH oxidase 1 [18]) was 0.44 µM (active) and the IC50 (NADPH oxidase 4) was 9 µM (active).
